Active and inactive are the calls of the source. The rule behind the calls is not given here.

Data set [1] has as its target T1, Toll-like receptor 4 (Homo sapiens, UniProt O00206). Kind of data set: Antagonist activity at TLR4 (unknown origin) expressed in human AD293 cells assessed as inhibition of LPS/ATP-stimulated TLR4/NF-kB signaling pathway at 10 uM after 16 hrs by luciferase reporter gene assay. It counts as cell-based. For orientation: Reporter assays use an easily measured gene product as a stand-in for the process of interest.

Data set [2] relates to AD293. The experiment in a line: Cytotoxicity against human AD293 cells assessed as reduction in cell viability at 10 uM after 24 hrs by methylene blue dye based spectrophotometric method. The conditions noted are these: ad293, 24 h.
For data set [3], the target named is T1, Toll-like receptor 4. The experiment in a line: Antagonist activity at TLR4 (unknown origin) expressed in human AD293 cells assessed as inhibition of LPS/ATP-stimulated TLR4/NF-kB signaling pathway after 16 hrs by luciferase reporter gene assay. It counts as cell-based.
The species entered for a further data set is Homo sapiens. The experiment in a line: Inhibition of TNFalpha-stimulated NF-kB signaling pathway (unknown origin) expressed in human AD293 cells after 4 hrs by luciferase reporter gene assay. It counts as cell-based.
Data set [4] has as its system AD293. The experiment in a line: Cytotoxicity against human AD293 cells assessed as reduction in cell viability after 24 hrs by methylene blue dye based spectrophotometric method. The following applies: ad293, 24 h.

T1 sequence (O00206 whole entry): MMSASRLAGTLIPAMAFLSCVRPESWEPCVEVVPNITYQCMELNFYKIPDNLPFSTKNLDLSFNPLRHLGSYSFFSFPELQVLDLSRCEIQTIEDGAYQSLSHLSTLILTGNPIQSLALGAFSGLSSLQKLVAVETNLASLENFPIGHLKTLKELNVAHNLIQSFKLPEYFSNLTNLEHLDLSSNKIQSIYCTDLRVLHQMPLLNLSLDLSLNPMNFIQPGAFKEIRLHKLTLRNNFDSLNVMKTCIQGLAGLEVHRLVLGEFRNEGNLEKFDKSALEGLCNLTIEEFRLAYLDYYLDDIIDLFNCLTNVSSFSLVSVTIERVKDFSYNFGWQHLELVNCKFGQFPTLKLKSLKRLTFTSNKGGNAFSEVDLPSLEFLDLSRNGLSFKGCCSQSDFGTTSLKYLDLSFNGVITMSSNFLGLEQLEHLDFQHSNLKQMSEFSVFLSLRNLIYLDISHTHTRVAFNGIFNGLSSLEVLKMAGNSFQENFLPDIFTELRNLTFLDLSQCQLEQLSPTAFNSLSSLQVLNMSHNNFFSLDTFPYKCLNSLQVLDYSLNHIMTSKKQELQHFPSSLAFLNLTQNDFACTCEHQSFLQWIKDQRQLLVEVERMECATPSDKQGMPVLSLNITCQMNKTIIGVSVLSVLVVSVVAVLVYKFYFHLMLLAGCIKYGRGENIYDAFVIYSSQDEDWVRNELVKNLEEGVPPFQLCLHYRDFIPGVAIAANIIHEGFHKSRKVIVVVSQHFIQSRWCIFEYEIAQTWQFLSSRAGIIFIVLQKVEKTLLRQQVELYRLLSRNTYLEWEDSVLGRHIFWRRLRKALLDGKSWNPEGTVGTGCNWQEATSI

`CC(=O)[C@]1(O)CC[C@@]2(O)[C@]1(C)[C@H](OC(=O)/C=C/c1ccccc1)C[C@@H]1[C@@]3(C)CC[C@H](OC(=O)/C=C/c4ccc([N+](=O)[O-])cc4)CC3=CC[C@]12O`: the inhibition entry on Toll-like receptor 4 [1] is “inactive”. For the same molecule, the Activity result with AD293 [2] is on record as “Toxic”.

`CC(=O)O[C@H]1CC[C@@]2(C)C(=CC[C@]3(O)[C@@H]2C[C@@H](OC(=O)/C=C/c2ccccc2)[C@@]2(C)[C@]3(O)CC[C@@]2(O)C(C)=O)C1`: the inhibition result on Toll-like receptor 4 [1] was “inactive”. In the data set on AD293 [2], the Activity result is given as “Toxic”.

As for `CC(=O)[C@]1(OC(=O)/C=C/c2ccc([N+](=O)[O-])cc2)CC[C@@]2(O)[C@]1(C)[C@H](OC(=O)c1ccc(O)cc1)C[C@@H]1[C@@]3(C)CC[C@H](OC(=O)/C=C/c4ccc([N+](=O)[O-])cc4)CC3=CC[C@]12O`, the inhibition result on Toll-like receptor 4 [1] was “inactive”. Besides, the Activity entry in the data set on AD293 [2] is “Toxic”.

Regarding `CC(=O)[C@]1(OS(C)(=O)=O)CC[C@@]2(O)[C@]1(C)[C@H](OC(=O)c1ccc(O)cc1)C[C@@H]1[C@@]3(C)CC[C@H](OS(C)(=O)=O)CC3=CC[C@]12O`, the inhibition result at Toll-like receptor 4 [1] was “inactive”. In addition, the Activity entry with AD293 [2] is “Toxic”.

For `C[C@H]1O[C@@H]2C[C@@H]3[C@@]4(C)CC[C@H](OC(=O)/C=C/c5ccc([N+](=O)[O-])cc5)CC4=CC[C@@]3(O)[C@@]3(O)CC[C@]1(OC(=O)/C=C/c1ccccc1)[C@@]23C`, the inhibition entry on Toll-like receptor 4 [1] was “inactive”. Further, the Activity entry in the data set with AD293 [2] is given as “Toxic”.

For `CC(=O)[C@]1(O)CC[C@@]2(O)[C@]1(C)[C@H](OC(=O)c1ccc(O)cc1)C[C@@H]1[C@@]3(C)CC[C@H](Br)CC3=CC[C@]12O`, the inhibition result at Toll-like receptor 4 [1] was “inactive”. Moreover, the Activity result in the data set on AD293 [2] was “Toxic”.

As for `COc1ccc(/C=C/C(=O)O[C@H]2CC[C@@]3(C)C(=CC[C@]4(O)[C@@H]3C[C@H]3O[C@H](C)[C@]5(OC(=O)/C=C/c6ccccc6)CC[C@@]4(O)[C@]35C)C2)cc1`, the inhibition entry on Toll-like receptor 4 [1] was “inactive”. Besides, in the data set with AD293 [2], the Activity result was “Toxic”.

The term EC50 denotes the concentration needed to bring the measured effect to its halfway point. As a reminder, the EC10 is the concentration needed for an effect of 10%. As for `CC(=O)[C@]1(O)CC[C@@]2(O)[C@]1(C)[C@H](OC(=O)/C=C(\C)C(C)C)C[C@@H]1[C@@]3(C)CCC(=O)CC3=CC[C@]12O`, on Toll-like receptor 4 [3], the EC50 came to 11.7 µM. Further, the EC10 in the data set filed under Homo sapiens and in the data set with AD293 [4] was more than 10 µM in each case.

For `C[C@H]1O[C@@H]2C[C@@H]3[C@@]4(C)CC[C@H](O)CC4=CC[C@@]3(O)[C@@]3(O)CC[C@]1(OC(=O)/C=C/c1ccccc1)[C@@]23C`, the inhibition entry at Toll-like receptor 4 [1] was “inactive”. Besides, the Activity result in the data set with AD293 [2] is “Toxic”.

In the case of `CCC(=O)O[C@H]1CC[C@@]2(C)C(=CC[C@]3(O)[C@@H]2C[C@@H](OC(=O)c2ccc(O)cc2)[C@@]2(C)[C@]3(O)CC[C@@]2(OC(=O)CC)C(C)=O)C1`, the inhibition result at Toll-like receptor 4 [1] is “inactive”. Also, the Activity result in the data set with AD293 [2] is given as “Toxic”.

Regarding `CC(=O)[C@]1(O)CC[C@@]2(O)[C@]1(C)[C@H](OC(=O)c1ccc(O)cc1)C[C@@H]1[C@@]3(C)CCC(=O)CC3=CC[C@]12O`, the inhibition entry on Toll-like receptor 4 [1] is “inactive”. Moreover, in the data set with AD293 [2], the Activity result is recorded as “Toxic”.

Regarding `CC(=O)[C@]1(OC(=O)c2cccc3ccccc23)CC[C@@]2(O)[C@]1(C)[C@H](OC(=O)c1ccc(O)cc1)C[C@@H]1[C@@]3(C)CC[C@H](OC(=O)c4cccc5ccccc45)CC3=CC[C@]12O`, the inhibition result on Toll-like receptor 4 [1] is “inactive”. The Activity result in the data set with AD293 [2] is “Toxic”.

Consider `C[C@@H](OC(=O)c1cccnc1)[C@]1(O)CC[C@@]2(O)[C@]1(C)[C@H](OC(=O)/C=C/c1ccccc1)C[C@@H]1[C@@]3(C)CC[C@H](OC(=O)/C=C/c4ccc([N+](=O)[O-])cc4)CC3=CC[C@]12O`, for which the EC50 on Toll-like receptor 4 [3] was determined as 14 µM. Further, the EC10 in the data set filed under Homo sapiens was more than 10 µM. For the same molecule, in the data set with AD293 [4], the CC10 is more than 10 µM.

Turning to `CC(=O)[C@]1(O)CC[C@@]2(O)[C@]1(C)[C@H](OC(=O)/C=C/c1ccccc1)C[C@@H]1[C@@]3(C)CC[C@H](O)CC3=CC[C@]12O`, on Toll-like receptor 4 [1], the inhibition result was “inactive”. In addition, the Activity entry with AD293 [2] is on record as “Toxic”.

In the case of `COc1cc(/C=C/C(=O)O[C@H]2CC[C@@]3(C)C(=CC[C@]4(O)[C@@H]3C[C@@H](OC(=O)/C=C/c3ccccc3)[C@@]3(C)[C@]4(O)CC[C@@]3(O)C(C)=O)C2)cc(OC)c1OC`, the inhibition entry on Toll-like receptor 4 [1] was “inactive”. For the same molecule, in the data set with AD293 [2], the Activity result is “Toxic”.

With `CC(=O)[C@]1(O)CC[C@]23OC(C)(C)O[C@]24CC=C2C[C@@H](O)CC[C@]2(C)[C@H]4C[C@@H](OC(=O)c2ccc(O)cc2)[C@@]31C`, at Toll-like receptor 4 [1], the inhibition result is “inactive”. The Activity result with AD293 [2] is “Toxic”.

Consider `CC(=O)[C@]1(OC(=O)c2ccc(Cl)nc2)CC[C@@]2(O)[C@]1(C)[C@H](OC(=O)c1ccc(O)cc1)C[C@@H]1[C@@]3(C)CC[C@H](OC(=O)c4ccc(Cl)nc4)CC3=CC[C@]12O`, for which the inhibition result at Toll-like receptor 4 [1] is “inactive”. Also, the Activity result in the data set on AD293 [2] is “Toxic”.

As for `COc1cc(/C=C/C(=O)O[C@H]2CC[C@@]3(C)C(=CC[C@]4(O)[C@@H]3C[C@H]3O[C@H](C)[C@]5(OC(=O)/C=C/c6ccccc6)CC[C@@]4(O)[C@]35C)C2)cc(OC)c1OC`, the inhibition entry on Toll-like receptor 4 [1] is “inactive”. Besides, the Activity result in the data set on AD293 [2] is given as “Toxic”.

`CC(=O)[C@]1(O)CC[C@@]2(O)[C@]1(C)[C@H](OC(=O)c1ccc(O)cc1)C[C@@H]1[C@@]3(C)CC[C@H](O)CC3=CC[C@]12O`: the inhibition entry on Toll-like receptor 4 [1] was “inactive”. In addition, the Activity entry with AD293 [2] was “Toxic”.

For `CC(=O)[C@]1(O)CC[C@@]2(O)[C@]1(C)[C@H](OC(=O)/C=C(\C)C(C)C)C[C@@H]1[C@@]3(C)CCC(OC(=O)CCl)CC3=CC[C@]12O` (some centres undefined), at Toll-like receptor 4 [1], the inhibition entry was “inactive”. The Activity result with AD293 [2] is reported as “Toxic”.

On to `COc1cc(/C=C/C(=O)O[C@H]2CC[C@@]3(C)C(=CC[C@]4(O)[C@@H]3C[C@@H](OC(=O)c3ccc(O)cc3)[C@@]3(C)[C@]4(O)CC[C@@]3(OC(=O)/C=C/c3cc(OC)c(OC)c(OC)c3)C(C)=O)C2)cc(OC)c1OC`, for which the inhibition entry at Toll-like receptor 4 [1] is “inactive”. The Activity entry in the data set on AD293 [2] is reported as “Toxic”.

Consider `C[C@H]1O[C@@H]2C[C@@H]3[C@@]4(C)CC[C@H](OC(=O)/C=C/c5ccccc5)CC4=CC[C@@]3(O)[C@@]3(O)CC[C@]1(OC(=O)/C=C/c1ccccc1)[C@@]23C`, for which the inhibition result on Toll-like receptor 4 [1] was “inactive”. For the same molecule, in the data set on AD293 [2], the Activity result is recorded as “Toxic”.

For the molecule `CC(O)[C@]1(O)CC[C@@]2(O)[C@]1(C)[C@H](OC(=O)c1ccc(O)cc1)C[C@@H]1[C@@]3(C)CC[C@H](O)CC3=CC[C@]12O` (some centres undefined), the inhibition result at Toll-like receptor 4 [1] was “inactive”. In the data set on AD293 [2], the Activity result is given as “Toxic”.

As to `COc1ccc(/C=C/C(=O)O[C@H]2CC[C@@]3(C)C(=CC[C@]4(O)[C@@H]3C[C@@H](OC(=O)/C=C/c3ccccc3)[C@@]3(C)[C@]4(O)CC[C@@]3(O)C(C)=O)C2)cc1`, the inhibition entry on Toll-like receptor 4 [1] was “inactive”. The Activity entry in the data set on AD293 [2] is reported as “Toxic”.

`CC(=O)[C@]1(OC(=O)c2ccc([N+](=O)[O-])cc2)CC[C@@]2(O)[C@]1(C)[C@H](OC(=O)c1ccc(O)cc1)C[C@@H]1[C@@]3(C)CC[C@H](OC(=O)c4ccc([N+](=O)[O-])cc4)CC3=CC[C@]12O`: the inhibition result at Toll-like receptor 4 [1] was “inactive”. In addition, the Activity result with AD293 [2] is “Toxic”.

As for `CC(=O)[C@]1(O)CC[C@@]2(O)[C@]1(C)[C@H](OC(=O)/C=C(\C)C(C)C)C[C@@H]1[C@@]3(C)CC[C@H](O)CC3=CC[C@]12O` [CAUDATIN], the inhibition result at Toll-like receptor 4 [1] is “inactive”. The Activity result with AD293 [2] is listed as “Toxic”.

The record behind these values is ChEMBL document CHEMBL4033685, “C21-steroidal pregnane sapogenins and their derivatives as anti-inflammatory agents” (Bioorg Med Chem, 2017).
